Laboratory results: patent US10668055B2, “Cancer treatment using combinations of ERK and RAF inhibitors” (BIOMED VALLEY DISCOVERIES, INC., priority 2013, dated 2020)
Read-outs that look alike come from different tables or passages of the source.

Key:
A375 = assay: Single agent proliferation assay (CellTiter-Glo, 72 h); type: cell-based, human; conditions: Homo sapiens, A-375; A375, 72 h
Description: (§1) Cells were seeded in 96-well plates at the densities and media conditions indicated in Table 17 and allowed to adhere overnight prior to addition of compound or vehicle control. Compounds were prepared from DMSO stocks to give the desired final concentrations. The final DMSO concentration was constant at 0.1%. Test compounds were incubated with the cells for 72 h at 37° C., 5% CO2 in a humidified atmosphere. CellTiter-Glo® reagent (Promega, Madison, Wis.) was added according to manufacturer's instructions and luminescence detected using the BMG FLUOstar plate reader (BMG Labtech, Ortenberg, Germany). The average media only background value was deducted and the data analysed using a 4-parameter logistic equation in GraphPad Prism (GraphPad Software, La Jolla, Calif.).

A375 cells [1] = assay: Proliferation assay (Alamar Blue, 96 hours) on parental and dose-escalated A375 cell lines; conditions: Homo sapiens
Description: (§2) Cancer cell lines were maintained in cell culture under standard media and serum conditions. For dose escalation studies, A375 cells were split, grown to about 40-60% confluence, and then treated with the initial dose of the specified drug.
(§3) Proliferation assays were used to track changes in sensitivity to the escalated agent(s) at appropriate time intervals (e.g. each month, although the timing is dependent on adequate cell numbers being available). For proliferation assays, cells were seeded in 96-well plates at 3000 cells per well in drug-free DMEM medium containing 10% FBS and allowed to adhere overnight prior to addition of compound or vehicle control. […] Test compounds were incubated with the cells for 96 hours at 37° C. and 5% CO2 in a humidified atmosphere. Alamar Blue 10% (v/v) was then added and incubated for 4 hours and fluorescent product was detected using a BMG FLUOstar plate reader. The average media only background value was deducted and the data analyzed using a 4-parameter logistic equation in GraphPad Prism. Paclitaxel was used as a positive control.

A375 cells [2] = tested on: A375 cells
Description: as §2, §3

G-361 = assay: Single agent proliferation assay (CellTiter-Glo, 72 h); type: cell-based; conditions: Homo sapiens, G-361, 72 h
Description: as §1

Work on CC(=O)O[C@H]1C(=O)[C@@]2(C)[C@H]([C@H](OC(=O)c3ccccc3)[C@]3(O)C[C@H](OC(=O)[C@H](O)[C@@H](NC(=O)c4ccccc4)c4ccccc4)C(C)=C1C3(C)C)[C@]1(OC(C)=O)CO[C@@H]1C[C@@H]2O [Paclitaxel] yielded an IC50 (A375) of 5 nM, an IC50 (A375 cells [1]; A-375, read-out: Relative IC50, Month 1, Par = Parental cell line) of 2.2 nM and an IC50 (A375 cells [1]; A-375, read-out: Relative IC50, Month 1, cell line BVD-523 (0.48 μM)) of 3.4 nM. It also gave an IC50 (A375 cells [1]; A-375, read-out: Relative IC50, Month 1, cell line Dab (15 nM Dab)) of 3.3 nM, an IC50 (A375 cells [1]; A-375, read-out: Relative IC50, Month 1, cell line Dab/523 (7.5 nM/0.24 μM)) of 3.4 nM and an IC50 (A375 cells [1]; A-375, read-out: Relative IC50, Month 1, cell line Tram (growing in 2 nM Tram)) of 3 nM. The IC50 (A375 cells [1]; A-375, read-out: Relative IC50, Month 2, Par = Parental cell line) was 3.7 nM, the IC50 (A375 cells [1]; A-375, read-out: Relative IC50, Month 2, cell line BVD-523 (0.8 μM)) was 6.5 nM and the IC50 (A375 cells [1]; A-375, read-out: Relative IC50, Month 2, cell line Dab (127 nM Dab)) was 1.9 nM. The IC50 (A375 cells [1]; A-375, read-out: Relative IC50, Month 2, cell line Dab/523 (12.5 nM/0.4 μM)) was 4.2 nM, the IC50 (A375 cells [1]; A-375, read-out: Relative IC50, Month 2, cell line Tra (8 nM Tram)) was 8.9 nM and the IC50 (A375 cells [1]; A-375, read-out: Relative IC50, Month 3, Par = Parental cell line) was 1.9 nM. For the same molecule, the IC50 (A375 cells [1]; A-375, read-out: Relative IC50, Month 3, cell line Dab (3.2 μM Dab)) was 1.9 nM, the IC50 (A375 cells [2]) was 4.7 nM and the IC50 (G-361) was 7 nM.
